Data published in patent US7820663B2, “Substituted enaminones, their derivatives and uses thereof” (The Regents of the University of California, priority 2005, dated 2010).

| melting point [°C] | SMILES |
| --- | --- |
| 114 to 115 | CCOc1ccc(N/C=C(\C(=O)Nc2ccccc2)c2cc(C)no2)cc1 [Example 3, α-[[(4-Ethoxyphenyl)amino]methylene]-3-methyl-N-phenyl-5-isoxazoleacetamide] |
| 179 to 180 | Cc1cc(/C(=C/Nc2ccc(Cl)cc2)C(=O)Nc2ccc(Cl)cc2)no1 [Example 8, N-(4-Chlorophenyl)-α-[[4-(chlorophenyl)amino]methylene]-5-methyl-3-isoxazoleacetamide] |
